# In patent publication US8309140B2, “Effect of porcine sheath proteins on the regeneration activity of periodontal ligament” (priority 2005, dated 2012):
# “Also recorded” adds a separate entry of the source.
# B1: 17 kDa sheath protein: Porcine 17 kDa sheath protein, N-terminal cleavage product of sheathlin containing 170 amino acids (protein, listed as Sus scrofa)
# chain: VPAFPRQPGTPGVASLSLETMRQLGSLQGLNMLSQYSRFGFGKSFNSLWMHGLLPPHSSFQWMRPREHETQQYEYSLPVHPPPLPSQPSLQPQQPGQKPFLQPTVVTSIQNPVQKGVPQPPIYQGHPPLQQVEGPMVQQQVAPSEKPPEAELPGLDFADPQDPSMFPIAR
# modifications: porcine sheath protein
# notes: Porcine 17 kDa sheath protein, N-terminal cleavage product of sheathlin containing 170 amino acids
# B2: 25 kDa amelogenin: most abundant uncleaved porcine amelogenin polypeptide (protein, UniProt P45561 17-189, looked up)
# Amelogenin: MPLPPHPGHPGYINFSYEVLTPLKWYQNMIRHPYTSYGYEPMGGWLHHQIIPVVSQQTPQSHALQPHHHIPMVPAQQPGIPQQPMMPLPGQHSMTPTQHHQPNLPLPAQQPFQPQPVQPQPHQPLQPQSPMHPIQPLLPQPPLPPMFSMQSLLPDLPLEAWPATDKTKREEVD
# Assays:
# [1] = tested on: human periodontal ligament (HPDL) cells; experiment: ALP inducing activity of HPDL cells on cell culture system; type: cell-based; conditions: for ALP inducing activity of HPDL cells (amelogenins and peptides based on 6 kDa amelogenin): purified porcine amelogenins and synthetic peptides; for ALP activity of HPDL cells (porcine sheath proteins and synthetic peptides): 50 μg/ml protein or peptide, TGF-β1 50 ng/ml, BMP-2 500 ng/ml, 10 nM 1α-25dihydroxy-Vitamin D3
# From the text: Human periodontal ligament (HPDL) cells were obtained according to the method of Somerman et al., (1988) from healthy premolars which were extracted from the patients for orthodontic reasons. The cells were precultured for 4-6 passages with a-MEM medium to establish the primary cell line. The cells were maintained in the alpha modification of Eagle's medium (α-MEM; Life Technologies, Grand Island, N.Y., USA) containing 10% fetal bovine serum (FBS; Asahi Technoglass, Chiba, Japan) and 1% antibiotics (100 U/ml of Penicillin-G and 100 μg/ml of Streptomycin sulfate; Gibco BRL, Grand Island, N.Y., USA) at 37° C. in a humidified 5% CO2 atmosphere. The ST2 cells (Riken Cell Bank, Tsukuba, Japan), an osteoblast-like mouse bone marrow stromal cell line, were cultured under the same conditions.
# HPDL cells were distributed in 96-well plates at a density of approximately 5×10^5 cells per a well and incubated for 24 h. The growth medium was then changed to contain 10 nM of 1α-25dihydroxy-Vitamin D3 (CALBIOCHEM, La Jolla, Calif.) and 50 μg/ml (final concentration) of fractionated enamel protein samples or synthesized peptides dissolved in ultrapure water. After 96 additional hours of incubation, the cells were washed once with PBS, and ALP activity was determined after a 10 min incubation at 37° C. in 10 mM p-nitrophenylphosphate (substrate) in 100 mM 2-amino-2-methyl-1,3-propanediol-HCl buffer (pH 10.0) containing 5 mM MgCl2. After adding 0.2 M NaOH, which stopped the reaction, the absorbance at 405 nm was read on a plate reader.
# HPDL cells of approximately 5×10^5 cells per well were distributed in 96-well plates and incubated for 24 h. The growth medium was then changed to contain 10 nM of 1α-25dihydroxy-Vitamin D3 and 50 μg/ml (final concentration) of purified sheath protein or synthesized peptide. After 96 additional hours of incubation, ALP activity was determined using p-nitrophenylphosphate as a substrate.
# The bioactivities of these synthetic peptides were tested their cytodifferentiation activity of HPDL cells and ST2 cells by determination of increasing ALP inducing activity on cell culture system. When these peptides applied in cell culture system, the concentration of their peptides was employed around 1 ng/ml. In the case of TGF-1, the concentration was 10 ng/ml.
# Normal human periodontal ligament fibroblasts were maintained in an α-minimal essential medium (α-MEM) containing 10% fetal bovine serum, either with or without 10 nM 1α-25dihydroxy-vitamin D3 and 1% antibiotics (100 U/mL of penicillin G and 100 μg/mL of streptomycin sulfate) at 37° C. in a humidified atmosphere of air containing 5% CO2. Another cell line, ST2 cells, was obtained from an osteoblast-like mouse bone marrow stromal cell line. These cells were cultured in the same conditions as those described above.
# The ALP inducing activities of synthetic peptides using the cell culture of HPDL cells and ST2 cells were examined. The HPDL cells were distributed in 96-well plates at a density of approximately 5×10^5 cells per well and incubated for 24 h. The medium was then changed to α-MEM containing 10 nM of 1α-25dihydroxy-vitamin D3 and either synthetic peptides or growth factors dissolved in ultra-pure water. After 96 h of incubation, the cells were washed once with phosphate-buffered saline, and 10 mM ρ-nitrophenylphosphate in 100 mM 2-amino-2-methel-1,3-propanediol-HCl buffer (pH 10.0) containing 5 mM MgCl2 was added. The ALP activity was determined after 10 min incubation at 37° C. and the absorbance at 405 nm was read using a plate reader, after adding 0.2 M NaOH to stop the reaction. […] When the synthetic peptides were applied in the cell culture system, their final concentrations were 25 or 50 μg/mL. A TGF-β1 receptor inhibitor (SB431542, 10 μM) was applied to the HPDL cell culture system to examine their influence relative to the ALP inducing activity of the synthetic peptides.
# [2] = tested on: buccal dehiscence type bone defects created along the roots of the canine mandibular premolars; experiment: Cementum regeneration (CR) activity, eight-week histological analysis on buccal dehiscence model of dogs; type: in vivo, beagle dogs; conditions: for CR (cementum regeneration) activity: histological analysis eight weeks after application, buccal dehiscence model of dogs
# Experimental: Approximately 2-year-old male beagle dogs (approximate 15 kg) were used to detect the CR activities after the applications of several enamel protein samples. They had intact dentition and a healthy periodontium. The surgical preparation of buccal dehiscence type bone defects was carried out according to the modified method of Hammarström (1997) under general anesthesia induced and maintained by an endotracheal tube with 1.5-2.0% of halothane (Takeda Yakuhin Co. LTD, Osaka, Japan) in 100% oxygen, after premedicated with intramuscular injection of the mixture of Ketamine HCl (9.8 mg/kg: Sankyo Co. LTD, Tokyo, Japan) and Xylazine HCl (0.7 mg/kg: Bayer Co. LTD, Tokyo, Japan).
# Contralateral buccal mucoperiosteal flaps were raised after an intracrevicular incision extending from the first mandibular premolar to the first mandibular molar. After the removing the buccal alveolar bone plate covering the mesial root of the second premolars, the exposed periodontal ligament and cementum of these areas were completely removed by means of a dental bur. At the apical end of the defect, a notch was created to identify the apical extension of the defect, when histological analyses. The distance between the cervical margin and the apical end of the defect was standardized at about 5 mm. The exposed root dentin surfaces were conditioned for 2 min with cotton pellets soaked in a 19% EDTA solution, and then carefully rinsed with sterile saline. Then 50 μg of each enamel protein sample in 100 μl of cold sterile distilled water was applied over the entire buccal surface area of the exposed roots. Finally, the mucoperiosteal flaps were repositioned to their level prior to surgery and sutured. Distilled water was used as a negative control and EMDOGAIN® (BIORA AB, Malmö, Sweden) served as a positive control.
# After 8 weeks the dogs were terminated by anesthetization with sodium pentobarbital. Their heads were fixed by perfusion with 0.1 M sodium cacodylate buffer (pH 7.4) containing 4% paraformaldehyde and 1% glutaraldehyde. Tissue blocks, which included teeth, bone, and tissue were dissected and demineralized in 10% formic acid containing 0.06 M sodium citrate and 0.1 M citric acid. All specimens were dehydrated using a graded series of alcohols and then embedded in paraffin. Serial sections (5 μm thick) were made and stained with hematoxylin/eosin for examination by light microscopy.
# The length and thickness of cementums regenerated after application of fractionated and purified enamel protein samples and EMD were measured on the computer monitor of histological results. The length of the regenerated cementum was straight distance between the apical end of the defect and coronal extention of the new cementum, as well as to the crest of the new alveolar bone. Also, the thickness of cementum was measured at coronal end, apical end and between them.
# CR promoting activity of enamel proteins obtained at each extracted and purified step were examined by eight-week histological analysis of buccal dehiscence type bone defects created along the roots of canine mandible (FIG. 1).
molecule,measurement,setting,value
"C=C1/C(=C\C=C2/CCC[C@]3(C)[C@@H]([C@H](C)CCCC(C)(C)O)CC[C@@H]23)C[C@@H](O)C[C@@H]1O [1α-25dihydroxy-vitamin D3, reference compound]",levels of ALP activity of HPDL cells by addition of 1α-25dihydroxy-vitamin D3,"[1]; 10 nM, with application of ESP synthetic peptides or TGF-β1",enhanced and stabilized
6 kDa amelogenin: derived from N-terminal side of 20 kDa amelogenin (MPLPPHPGHPGYINFSYEVLTPLKWYQNMIRHPYTSYGYEPMGGW; porcine 6 kDa amelogenin; listed as Sus scrofa),ALP inducing activity of HPDL cells (amelogenins and peptides based on 6 kDa amelogenin),[1],activity like TGF-β1; also recorded: strongest ALP inducing activity of HPDL cells
"A-1: N-terminal side peptide synthesized based on the sequence of 6 kDa amelogenin (MPLPPHPGHPGYINF; 15 aa from 1 to 15 in sequence 14, 33 and 34; listed as Homo sapiens)",ALP inducing activity of HPDL cells (amelogenins and peptides based on 6 kDa amelogenin),[1],showed the strong bioactivity
"A-1-2: shorter peptide synthesized based on the sequence of A-1 (PGHPGY; 6 aa from 7 to 12 in sequence 9, 14, 33 and 34; listed as Homo sapiens)","concentration at which the peptide promotes the bioactivity (ALP inducing activity of HPDL cells), low concentration",[1]; cell culture system,10 ng/mL
same,ALP inducing activity of HPDL cells (amelogenins and peptides based on 6 kDa amelogenin),[1],promote ALP inducing activity
"NC(=O)c1ccc(-c2nc(-c3ccc4c(c3)OCO4)c(-c3ccccn3)[nH]2)cc1 [SB431542, reference compound]",ALP inducing activity of HPDL cells when adding TGF-β1 receptor inhibitor SB431542,"[1]; 10 μM SB431542, 10 nM 1α-25dihydroxy-vitamin D3",significantly inhibited the activity of TGF-β1
"C-1: 15-residue peptide, position 132-146 of porcine 17 kDa sheath protein (VEGPMVQQQVAPSEK; 15 aa from 132 to 146 in sequence 10; listed as Sus scrofa)",ALP activity of HPDL cells (porcine sheath proteins and synthetic peptides),[1]; 96 h,not so strong; also recorded: enhanced the ALP activity of the HPDL cells
SDKPPKPELPVDF (13 aa from 144 to 156 in sequence 36; listed as Homo sapiens) [H-2′],ALP inducing activity of HPDL cells (Example 4),"[1]; peptides 50 μg/mL, TGF-β1 1 ng/mL, BMP-2 1 μg/mL, 10 nM 1α-25dihydroxy-vitamin D3, 96 h",showed the same inductive properties
"A-1-1: shorter peptide synthesized based on the sequence of A-1 (MPLPPH; 6 aa from 1 to 6 in sequence 9, 14, 33 and 34; listed as Homo sapiens)","concentration at which the peptide promotes the bioactivity (ALP inducing activity of HPDL cells), high concentration",[1]; cell culture system,1 µg/mL
same,ALP inducing activity of HPDL cells (amelogenins and peptides based on 6 kDa amelogenin),[1],promote ALP inducing activity
same,ALP inducing activity of HPDL cells (amelogenins and peptides based on 6 kDa amelogenin),[1]; listed as SEQ ID NO: 6,had ALP inducing activity
B1,thickness of regenerated cementum,"[2]; eight weeks following application, measured at 3 points (apical, middle, coronal), beagle dogs",31.77±3.78 μm
same,CR (cementum regeneration) activity,[2],"induced a thick acellular cementum; also recorded: induced thick acellular cementum near the apical end of the defect, but the CR was scarce near the coronal end; also recorded: induced a smaller area of cementum regeneration; also recorded: exhibited the CR activity"
same,CR (cementum regeneration) activity,[2]; listed as 17 kDa ESP,stronger cementum regeneration promoting activity
same,ALP activity of HPDL cells (porcine sheath proteins and synthetic peptides),[1]; 96 h,enhanced
same,ALP activity of HPDL cells (porcine sheath proteins and synthetic peptides),"[1]; 96 h, listed as 17 kDa ESP",weaker than that of TGF-β1
B2,ALP inducing activity of HPDL cells (amelogenins and peptides based on 6 kDa amelogenin),[1],activity like TGF-β1
